# Columns and labels:
# Akt2 [1] = target: T1, Akt2 (Homo sapiens, UniProt P31751); experiment: Yeast two-hybrid screening, β-Gal lifting assay and quantitative liquid β-Gal assay; type: cell-based; parameters: expressed in transfected cells; host or cells: yeast Y190 cells (Clontech), lithium acetate method; key to β-Gal lifting assay category of interaction with Akt2: 3 h-positive [++]; 8 h-positive [+]; 24 h-negative [−]; details: yeast Y190 cells; for binding to Akt in β-Gal lifting assay and quantitative liquid β-Gal assay: site-directed TCL1 mutants
# T1 sequence (P31751 whole entry): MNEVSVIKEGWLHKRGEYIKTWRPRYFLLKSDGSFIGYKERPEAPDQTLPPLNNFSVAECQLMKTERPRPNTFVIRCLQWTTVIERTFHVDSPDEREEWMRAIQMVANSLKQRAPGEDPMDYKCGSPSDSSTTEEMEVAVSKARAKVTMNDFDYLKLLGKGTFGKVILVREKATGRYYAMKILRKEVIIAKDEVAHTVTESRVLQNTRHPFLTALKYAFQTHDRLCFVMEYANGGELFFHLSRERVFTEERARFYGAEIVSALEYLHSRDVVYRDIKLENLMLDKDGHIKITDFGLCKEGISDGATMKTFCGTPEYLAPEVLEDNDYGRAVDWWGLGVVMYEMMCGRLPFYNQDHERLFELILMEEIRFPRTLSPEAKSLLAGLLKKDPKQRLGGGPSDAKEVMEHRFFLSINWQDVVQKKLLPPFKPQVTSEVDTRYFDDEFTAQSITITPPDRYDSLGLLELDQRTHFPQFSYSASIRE
# Method: Y190 cells (Clontech), by using lithium acetate method; and human Akt2 (Akt2/PAS2-1) and TCL1 random library, in accordance with the previous report (Mol. Cell 6:395-407; Proc. Natl. Acad. Sci. USA 94:11534-11539); were expressed in yeast. In the presence of 3-amino-1,2,4-triazole (SIGMA), around […] clones from cDNA library were screened. β-galactosidase (β-Gal) activity in His+ colony was measured by using filter-lift assay. Yeast clones were classified into clone categories: 3 h-positive [++], 8 h-positive [+], and 24 h-negative [−] by the intensity of β-Gal. Ten clones were selected from the each category for sequencing of the nucleotide.
# Y190 cells (Clontech) were expressed in yeast together with TCL1 of wild-type, D16G, K30M, Q46R, 174V, or M106V by using Akt2/PAS2-1, with the use of pGAD424 (Clontech) vector. TCL1 mutant was produced by using PCR-based site-directed mutagenesis and/or Quikchange kit (Stratagene). Liquid β-Gal assay was performed for quantitative determination of binding intensity by using ONPG (O-nitrophenyl-β-D-galactoppyranoside; Sigma) (Mol. Cell 6:395-407). The indicated values were determined by western blotting analysis (GAL4 activation domain antibody [Ab]: Clontech), and normalized by expressing transformant in each yeast.
# Next, a yeast two-hybrid screening was performed to examine the interaction of each clone with Akt2. Yeast clones were classified into three categories based on the blue-color intensity expressed in β-Gal lifting assay (β-Gal positive [++] at 3 h, β-Gal positive [+] at 8 h, and negative [−]). Nucleotide sequences of the 10 clones in each category were determined.
# Akt kinase [2] = target: Akt kinase (Homo sapiens, UniProt P31749); experiment: In vitro kinase assay of TCL1-induced Akt activation; type: biochemical; details: for Akt kinase activity: dose escalation
# Chain of Akt kinase (Homo sapiens, UniProt P31749) (P31749 whole entry): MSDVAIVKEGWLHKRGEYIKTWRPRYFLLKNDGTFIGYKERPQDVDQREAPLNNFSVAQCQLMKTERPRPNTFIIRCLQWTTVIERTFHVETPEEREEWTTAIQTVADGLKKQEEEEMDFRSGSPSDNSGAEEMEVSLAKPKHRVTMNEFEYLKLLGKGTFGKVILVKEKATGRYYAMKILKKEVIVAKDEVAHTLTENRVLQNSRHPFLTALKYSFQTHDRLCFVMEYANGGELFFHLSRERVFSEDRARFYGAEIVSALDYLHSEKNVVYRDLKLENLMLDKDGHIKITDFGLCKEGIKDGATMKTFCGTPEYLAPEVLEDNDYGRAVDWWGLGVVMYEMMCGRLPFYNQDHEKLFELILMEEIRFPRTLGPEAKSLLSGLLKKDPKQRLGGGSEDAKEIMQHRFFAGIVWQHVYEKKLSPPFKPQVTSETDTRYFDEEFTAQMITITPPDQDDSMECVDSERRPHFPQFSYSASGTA
# Method: This was predominantly correlated with Akt Ser-473 phosphorylation levels. […] D16G TCL1 was evaluated by Akt kinase activity.
# AKT kinase (unactivated) = target: T2, AKT kinase (unactivated) (Homo sapiens, UniProt P31749); experiment: Lipid-protein pull down assay with PIP Beads (PI (3,4,5) P3); type: binding; details: for binding of PIP Beads (PI (3,4,5) P3) to AKT: 1-400 μM peptide, 50 ng AKT kinase, 2 hours at 4° C., western blotting
# T2 construct: purchased Upstate Biotechnology #14-279
# T2 sequence (P31749 whole entry): as above
# Method: Lipid-protein pull down assay was performed for 10/24 peptide of TCL1.
# Lipid-protein pull down assay was performed by using PIP Beads (PI (3,4,5) P3 Echelon Bioscience Incorporated). 10/24 NH2-AVTDHPDRLWAWEKF-COOH (SEQ ID NO: 1), and βC NH2-EKQHAWLPLTIE-COOH (SEQ ID NO: 22) as a control, were used. After treatment for 2 hours at 4° C. by using 50 ng of AKT kinase (unactivated, Upstate Biotechnology, #14-279), 25 μl of PIP Beads (PI (3,4,5) P3 Echelon Bioscience Incorporated) was added, then washed with fluid containing (10 mM Hepes, pH7.4, 0.25% NP-40, 140 mM NaCl), and western blotting was performed by using Akt antibody (Cell Signaling) (FIG. 8). […] Thus, this is considered to be the inhibition mechanism for Akt activation.
# T4 cell lines = experiment: Cell growth test by MTT (WST-8 reagent) assay; type: cell-based, human; details: T4 cell lines without stimulation, 0-50 μM, 48 hours, WST-8, absorbance at 450 nm
# Method: Cell growth test was performed by using MTT assay. That is, in experiments of cell growth by using WST-8 reagent [2-(2-methoxy-4-nitrophenyl)-3-(4-nitrophenyl)-5-(2,4-disulfophenyl)-2H-tetrazolium, monosodium salt]
# In this method, 10/24 peptide was pre-treated at 0-50 μM concentration in cell growth test by using T4 cell lines without stimulation, 48 hours later the growth potency was measured by using WST-8 reagent assay, the absorbance at 450 nm was measured by ELISA using a microplate reader (Model 550; BioRad, Tokyo, Japan).
# Recombinant Akt protein = experiment: In vitro Akt kinase assay with GSK as substrate; type: biochemical; details: 200 μM peptide, reacted 2 hours, phosphorylation 4 minutes at 30° C., western blotting
# Method: With the use of the GSK as substrate Akt kinase assay was performed, and inhibition test for Akt activation with 10/24 peptide was performed.
# In vitro Akt kinase assay was performed by using kit (Cell Signaling, #9840). Recombinant Akt protein extracted from mammalian cells was mixed with 200 μM concentrations of peptide, and reacted for 2 hours. Phosphorylation was performed for 4 minutes at 30° C. After analyzing the reaction mixture on SDS gels, GSK phosphorylation was determined by western blotting.
# [3] = test system: human T cell leukemia cells (T4); experiment: Apoptosis of T4 cells by propidium iodide staining and FACS; type: cell-based
# Method: The effect on apoptosis of 10/24 peptide was examined with the use of human T cell leukemia cells (T4).
# 10/24 peptide (NH2-AVTDHPDRLWAWEKF-COOH) (SEQ ID NO: 1) was pre-treated at 0-30 μM concentrations with the use of T4 cell lines without stimulation, 48 hours later stained with propidium iodide, and the apoptosis was determined by FACS (Beckton Dickinson). Further, to identify the AKT dependency of the anti-tumor effect, myr-AKT (constitutively activated AKT) was overexpressed.
# [4] = test system: AKT overexpressed in 293 cells; experiment: Inhibition of activation and membrane translocation of AKT in 293 cells (confocal microscope); type: cell-based, human; details: PDGF-AB 10 minutes, compared with control peptides
# Method: Inhibition effect for the activation and membrane translocation of AKT of 10/24 peptide were tested with the use of 293 cells (ATCC).
# […] of AKT was overexpressed in 293 cells (ATCC) with the use of FuGENE6 (Roche Diagnostics). Sixteen hours later the serum was eliminated, and the cells were stimulated with PDGF-AB (Sigma, #3226) for 10 minutes. The cells were fixed with 4% paraformaldehyde, stained with FITC-conjugated anti-HA antibody (12CA5, MBL) or phospho-Ser 473 antibody (587-F11, Cell Signaling), and observed under the confocal microscope (Nikon).
# As shown in the FIG. 10, in the 10/24 treated cells (g-i), the inhibition of the membrane translocation and activation of AKT was identified compared with the control peptides (a-f) (around the cells glowed green or yellow as shown in d or f, while this effect was inhibited in the 10/24 peptide as shown in […] or i. See the figure). That is, from the results of the experiment, it was identified that the 10/24 peptide inhibits the activation at the same time as the translocating of AKT to the membrane in cells. AKT essentially translocates to the cell surface where it is activated, but in the 10/24 peptide treated cells, it was identified that the translocation to membrane and activation of AKT was inhibited.
# Akt kinase [5] = experiment: Binding test by co-immunoprecipitation assay; details: lysate of human 293 cells overexpressing AKT kinase, incubated around 2 hours, western blotting
# Method: In this method, AKT kinase was overexpressed in human 293 cells, and the harvested cell lysates was incubated with 10/24 peptide (NH2-AVTDHPDRLWAWEKF-COOH) (SEQ ID NO: 1) for around 2 hours. Further, the treated cell lysates were added agarose beads bound to the specific antibody against an epitope that was fused with Akt, and co-incubated for 2-3 hours. Then, molecules adhered in the cell lysates were immunoprecipitated with agarose beads bound to this antibody, and examined the binding to Akt kinase by using western blotting with specific antibody.
# Akt1 = experiment: Co-immunoprecipitation binding test with Akt subtype Akt1; details: 293 cell lysate, peptide at 400 μM, anti Flag M2 immunoprecipitation, western blotting
# Method: (§1) Binding test between 10/24 peptide and Akt subtype molecule: Akt1, Akt2, or Akt3, was performed by using co-immunoprecipitation assay.
# (§2) The cell lysate overexpressed Akt kinase in 293 cells (ATCC) i.e., Akt1, Akt2 or Akt3 in pCMV6 was expressed in 293 cells (ATCC) by using calcium phosphate method, and the overexpressed cells were harvested, lysed, and pre-treated with Protein G/A agarose mixture (50% v/v, ProG/A, Pharmacia). Akt or a control peptide (βC) was added to the cell lysate at 400 μM, inoculated with ProG/A for 3 hours at 4° C., and was added anti Flag M2 antibody (Sigma). The resultant immune precipitant was washed, and then were identified the binding to Akt kinase by western blotting (anti-HA antibody, 3F10, Boehringer Mannheim). As shown in the figure, the 10/24 peptide bound to any of the three subtypes of molecules, Akt1, Akt2, and Akt3.
# [6] = test system: Mouse QrSP-11 fibrosarcoma tumors of example 8; experiment: Histological examination of peptide treated mouse tumor; type: in vivo
# Description: Experimental mouse tumors of example 8 were harvested on the day 9, and histologically examined by macroscopic appearance, hematoxylin-eosin (H&E) staining (an observing method for conditions of cell nucleus and the like), TUNEL (Tdt-mediated dUTP nick end labeling, #MK500, Takara) immunostaining (a histologically identifying method for the way of the atypical death of carcinoma i.e., apoptosis), and phospho Akt (Ser 473) monoclonal antibody (a method for determining 587F11, Cell Signaling, phosphorylation of AKT kinase, and observing the activation).
# Akt3 = target: T3, Akt3 (Homo sapiens, UniProt Q9Y243); experiment: Co-immunoprecipitation binding test with Akt subtype Akt3; details: 293 cell lysate, peptide at 400 μM, anti Flag M2 immunoprecipitation, western blotting
# T3 construct: expressed in transfected cells; host or cells: 293 cells (ATCC), calcium phosphate transfection, pCMV6 vector
# T3 sequence (Q9Y243 whole entry, species assumed): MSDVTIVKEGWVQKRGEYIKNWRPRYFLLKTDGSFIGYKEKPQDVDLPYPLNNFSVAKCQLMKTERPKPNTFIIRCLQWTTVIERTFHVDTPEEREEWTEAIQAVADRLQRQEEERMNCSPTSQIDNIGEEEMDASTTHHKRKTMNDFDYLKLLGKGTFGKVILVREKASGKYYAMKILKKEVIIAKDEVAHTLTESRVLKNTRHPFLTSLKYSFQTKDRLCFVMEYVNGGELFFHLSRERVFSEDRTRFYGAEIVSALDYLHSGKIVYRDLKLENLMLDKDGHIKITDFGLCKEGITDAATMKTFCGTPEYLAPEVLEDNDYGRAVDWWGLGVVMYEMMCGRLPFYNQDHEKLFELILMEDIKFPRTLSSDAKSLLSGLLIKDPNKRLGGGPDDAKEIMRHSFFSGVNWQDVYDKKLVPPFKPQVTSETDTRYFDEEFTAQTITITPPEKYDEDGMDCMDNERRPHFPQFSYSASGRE
# Method: as §1, §2
# Akt2 [7] = target: T1, Akt2; experiment: Co-immunoprecipitation binding test with Akt subtype Akt2; parameters: expressed in transfected cells; host or cells: 293 cells (ATCC), calcium phosphate transfection, pCMV6 vector; details: 293 cell lysate, peptide at 400 μM, anti Flag M2 immunoprecipitation, western blotting
# Method: as §1, §2
# [8] = test system: Akt in mouse QrSP-11 fibrosarcoma cells; experiment: Inhibition of Akt phosphorylation activation in PDGF-stimulated QrSP-11 cells (western blotting); type: cell-based; details: 50 mM peptide for 16 hours, PDGF stimulation
# Method: Inhibition effect on Akt activation of AKT phosphorylation (serine 473 residue, threonine 308 residue) of 10/24 peptide and control peptide in mouse QrSP-11 fibrosarcoma cells were examined.
# QrSP-11 cells were mixed with 50 mM concentrations of peptide for 16 hours. Then the mixture was stimulated with PDGF (PDGF-AB, Sigma, 3226). The cells were lysed in the presence of phosphatase inhibitor, analyzed on SDS gels, and western blotting was performed by ECL (Amersham) with the use of various antibodies (Cell Signaling; anti-Akt #9272, anti-pThr 308 #9275L, and anti-pSer 473 #9271L). As shown in the figure, in the 10/24 peptide treated cells, phosphorylations of both serine 473 and threonine 308 were inhibited as shown at the right in the figure. That is, phosphorylation inhibition caused by 10/24 peptide was indicated by diluting the black bands at the right compared to the second and forth rows from the left in the figure.
# [9] = test system: Mouse QrSP-11 fibrosarcoma cells transplanted to C57BL/6 mouse; experiment: In vivo anti-tumor effect on transplanted tumor cells; details: injected directly into tumor, 2 μM 3 times a week per mouse, versus control peptide
# Method: In vivo anti-tumor effect by 10/24 peptide with the use of the transplanted tumor cells was examined.
# Mouse QrSP-11 fibrosarcoma cells was transplanted to abdominal wall of C57BL/6 mouse, and examined the inhibition ? effect on tumor growth by peptide. 10/24 peptide or control peptide was injected directly into tumor cells (2 μM was administered 3 times a week for each mouse, shown by arrows in the figure), the tumor diameters were measured and the volumes were calculated.
substance,measurement,setting,value
D16G TCL1: amino acid-substituted mutant form of TCL1 (D16G),binding to Akt in β-Gal lifting assay and quantitative liquid β-Gal assay,Akt2 [1],dramatic decrease
same,GSK-3α phosphorylation and Akt Ser-473 phosphorylation,Akt kinase [2],did not affect
same,Akt kinase activity,Akt kinase [2],did not affect the Akt kinase activity
I74V: amino acid-substituted mutant form of TCL1 (I74V),binding to Akt in β-Gal lifting assay and quantitative liquid β-Gal assay,Akt2 [1],dramatic decrease
"Wild-type TCL1: human TCL1 protooncogene protein, co-activator of Akt",β-Gal lifting assay category of interaction with Akt2,Akt2 [1]; blue-color intensity,++
same,Akt kinase activity,Akt kinase [2],increase in Akt kinase activity
"NH2-EKQHAWLPLTIE-COOH (H-EKQHAWLPLTIE-OH; listed as Homo sapiens) [βC, reference compound]","binding of PIP Beads (PI (3,4,5) P3) to AKT",AKT kinase (unactivated),did not inhibit at all
"NH2-AVTDHPDRLWAWEKF-COOH (H-AVTDHPDRLWAWEKF-OH; listed as Homo sapiens) [10/24 peptide, amino acid residue 10-24 of human TCL1]",cell growth associated with AKT activation,T4 cell lines,specifically inhibits cell growth
same,phosphorylation potency of Akt for GSK peptide (Akt kinase activity),Recombinant Akt protein,effectively inhibited
same,apoptosis,"[3]; T4 cell lines without stimulation, 0-30 μM, 48 hours, compared with control peptide",enhance apoptosis
same,apoptosis with myr-AKT (constitutively activated AKT) overexpression,"[3]; T4 cells, AKT dependency of the effect",apoptosis was inhibited
same,"mode of inhibition of the binding of Phosphoinositide (PI (3,4,5) P3) to Akt kinase",AKT kinase (unactivated),competitively inhibits
same,"binding of PIP Beads (PI (3,4,5) P3) to AKT",AKT kinase (unactivated),inhibited in a dose-dependent manner
same,membrane translocation of AKT,[4]; anti-HA staining,inhibited
same,activation of AKT (phospho-Ser 473 staining),[4],inhibited
same,binding to Akt kinase,Akt kinase [5],specifically binds
same,binding to Akt1,Akt1,bound
same,Akt activation (phospho Akt Ser 473 staining),[6]; tumors harvested on day 9,inhibition of Akt activation
same,apoptosis by H&E staining,[6]; tumors harvested on day 9,increased apoptosis
same,cell apoptosis by TUNEL staining,[6]; tumors harvested on day 9,increased cell apoptosis
same,tumor size by macroscopic appearance,"[6]; tumors harvested on day 9, compared to the control",reduction in tumor size was clearly observed
same,binding to Akt3,Akt3,bound
same,binding to Akt2,Akt2 [7],bound
same,phosphorylation of Akt serine 473,[8],inhibited
same,phosphorylation of Akt threonine 308,[8],inhibited
same,tumor growth (tumor volume),[9],tumor growth was effectively inhibited
